Measured values as given in US20130217722A1, “NOVEL COMPOUND USEFUL FOR THE TREATMENT OF DEGENERATIVE AND INFLAMMATORY DISEASES” (priority 2012, published 2013).
Where “and” joins values, the source holds several entries; their conditions need not be identical. Equal entries are not always repeated.

Legend:
[1] = molecular target: T1, JAK1 (Homo sapiens, UniProt P23458); assay: JAK1 Ulight-JAK1 peptide assay; assay type: biochemical
T1 construct: Recombinant human JAK1 (catalytic domain, amino acids 866-1154; catalog number PV4774) was purchased from Invitrogen; purchased Invitrogen PV4774
Protocol: Recombinant human JAK1 (catalytic domain, amino acids 866-1154; catalog number PV4774) was purchased from Invitrogen. 1 ng of JAK1 was incubated with 20 nM Ulight-JAK1(tyr1023) peptide (Perkin Elmer catalog number TRF0121) in kinase reaction buffer (25 mM MOPS pH6.8, 0.01% Brij-35, 5 mM MgCl2, 2 mM DTT, 7 μM ATP) with or without 4 μL containing test compound or vehicle (DMSO, 1% final concentration), in a total volume of 20 μL, in a white 384 Opti plate (Perkin Elmer, catalog number 6007290). […] Readout is performed using the Envision with excitation at 320 nm and measuring emission at 615 nm (Perkin Elmer). Kinase activity was calculated by subtracting relative fluorescence units (RFU) obtained in the presence of a positive control inhibitor (10 μM staurosporine) from RFU obtained in the presence of vehicle. The ability of a test compound to inhibit this activity was determined as:
Percentage inhibition=((RFU determined for sample with test compound present−RFU determined for sample with positive control inhibitor) divided by (RFU determined in the presence of vehicle−RFU determined for sample with positive control inhibitor))*100.
Dose dilution series were prepared for the compounds enabling the testing of dose-response effects in the JAK1 assay and the calculation of the IC50 for the compound. […] The data are expressed as the average IC50 from the assays ±standard error of the mean.

[2] = molecular target: T1, JAK1; assay: JAK1 Ki determination assay; assay type: biochemical; conditions: Lineweaver-Burk, varying ATP; read-out: Ki against JAK1
Protocol: For the determination of Ki, different amounts of compound were mixed with the enzyme and the enzymatic reaction was followed as a function of ATP concentration. The Ki was determined by means of double reciprocal plotting of Km vs compound concentration (Lineweaver-Burk plot). 1 ng of JAK1 (Invitrogen, PV4774) is used in the assay. The substrate was 50 nM Ulight-JAK-1 (Tyr1023) Peptide (Perkin Elmer, TRF0121) The reaction is performed in 25 mM MOPS pH 6.8, 0.01%, 2 mM DTT, 5 mM MgCl2 Brij-35 with varying concentrations of ATP and compound. Phosphorylated substrate was measured using an Eu-labeled anti-phosphotyrosine antibody PT66 (Perkin Elmer, AD0068) as described in 1.1.2. Readout was performed on the envision (Perkin Elmer) with excitation at 320 nm and emission followed at 615 nm and 665 nm.

[3] = molecular target: T2, Recombinant human JAK3 catalytic domain (Homo sapiens, UniProt P52333); assay: JAK3 inhibition assay (polyGT substrate); assay type: biochemical
T2 construct: Recombinant human JAK3 catalytic domain (amino acids 781-1124; catalog number PV3855) was purchased from Invitrogen; purchased Invitrogen PV3855
Protocol: Recombinant human JAK3 catalytic domain (amino acids 781-1124; catalog number PV3855) was purchased from Invitrogen. 0.5 ng JAK3 protein was incubated with 2.5 μg polyGT substrate (Sigma catalog number P0275) in kinase reaction buffer (25 mM Tris pH 7.5, 0.5 mM EGTA, 10 mM MgCl2, 2.5 mM DTT, 0.5 mM Na3VO4, 5 mM b-glycerolphosphate, 0.01% Triton X-100, 1 μM non-radioactive ATP, 0.25 μCi ^33P-gamma-ATP (GE Healthcare, catalog number AH9968) final concentrations) with or without 5 μL containing test compound or vehicle (DMSO, 1% final concentration), in a total volume of 25 μL, in a polypropylene 96-well plate (Greiner, V-bottom). After 45 min at 30° C., reactions were stopped by adding 25 μL/well of 150 mM phosphoric acid. […] 40 μL/well of Microscint-20 was added, the top of the plates was sealed and readout was performed using the Topcount (Perkin Elmer). Kinase activity was calculated by subtracting counts per min (cpm) obtained in the presence of a positive control inhibitor (10 μM staurosporine) from cpm obtained in the presence of vehicle. The ability of a test compound to inhibit this activity was determined as:
Percentage inhibition=((cpm determined for sample with test compound present−cpm determined for sample with positive control inhibitor) divided by (cpm determined in the presence of vehicle−cpm determined for sample with positive control inhibitor))*100. […]

[4] = molecular target: T3, TYK2 (Homo sapiens, UniProt P29597); assay: TYK2 Ki determination assay (kinase tracer binding); conditions: kinase tracer 236 binding; read-out: Ki against TYK2
T3 construct: purchased Carna Biosciences 09CBS-0983D
Protocol: TYK2 (Carna Biosciences, 09CBS-0983D) was used at a final concentration of 5 nM. The binding experiment was performed in 50 mM Hepes pH 7.5, 0.01% Brij-35, 10 mM MgCl2, 1 mM EGTA using 50 nM kinase tracer 236 (Invitrogen, PV5592) and 2 nM Eu-anti-GST (Invitrogen, PV5594) with varying compound concentrations. Detection of tracer was performed according to the manufacturers' procedure.

T2 sequence (P52333 781-1124): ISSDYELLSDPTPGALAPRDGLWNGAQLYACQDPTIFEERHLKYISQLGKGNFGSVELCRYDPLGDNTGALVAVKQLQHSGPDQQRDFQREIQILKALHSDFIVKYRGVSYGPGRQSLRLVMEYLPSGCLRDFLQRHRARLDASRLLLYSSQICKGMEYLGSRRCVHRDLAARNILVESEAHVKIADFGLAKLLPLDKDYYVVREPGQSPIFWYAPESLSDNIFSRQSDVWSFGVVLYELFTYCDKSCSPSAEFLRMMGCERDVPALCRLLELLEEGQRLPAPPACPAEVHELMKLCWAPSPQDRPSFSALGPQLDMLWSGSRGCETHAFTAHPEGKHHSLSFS
T1 sequence (P23458 866-1154): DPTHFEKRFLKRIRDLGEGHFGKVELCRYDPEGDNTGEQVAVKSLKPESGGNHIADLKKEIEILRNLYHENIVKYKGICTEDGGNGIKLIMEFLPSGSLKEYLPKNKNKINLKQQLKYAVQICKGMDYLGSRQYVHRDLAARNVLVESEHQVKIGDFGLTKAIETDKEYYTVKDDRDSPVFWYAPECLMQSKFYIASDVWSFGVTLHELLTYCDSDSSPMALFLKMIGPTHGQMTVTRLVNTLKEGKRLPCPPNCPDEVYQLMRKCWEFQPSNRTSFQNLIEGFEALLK
T3 sequence (P29597 whole entry): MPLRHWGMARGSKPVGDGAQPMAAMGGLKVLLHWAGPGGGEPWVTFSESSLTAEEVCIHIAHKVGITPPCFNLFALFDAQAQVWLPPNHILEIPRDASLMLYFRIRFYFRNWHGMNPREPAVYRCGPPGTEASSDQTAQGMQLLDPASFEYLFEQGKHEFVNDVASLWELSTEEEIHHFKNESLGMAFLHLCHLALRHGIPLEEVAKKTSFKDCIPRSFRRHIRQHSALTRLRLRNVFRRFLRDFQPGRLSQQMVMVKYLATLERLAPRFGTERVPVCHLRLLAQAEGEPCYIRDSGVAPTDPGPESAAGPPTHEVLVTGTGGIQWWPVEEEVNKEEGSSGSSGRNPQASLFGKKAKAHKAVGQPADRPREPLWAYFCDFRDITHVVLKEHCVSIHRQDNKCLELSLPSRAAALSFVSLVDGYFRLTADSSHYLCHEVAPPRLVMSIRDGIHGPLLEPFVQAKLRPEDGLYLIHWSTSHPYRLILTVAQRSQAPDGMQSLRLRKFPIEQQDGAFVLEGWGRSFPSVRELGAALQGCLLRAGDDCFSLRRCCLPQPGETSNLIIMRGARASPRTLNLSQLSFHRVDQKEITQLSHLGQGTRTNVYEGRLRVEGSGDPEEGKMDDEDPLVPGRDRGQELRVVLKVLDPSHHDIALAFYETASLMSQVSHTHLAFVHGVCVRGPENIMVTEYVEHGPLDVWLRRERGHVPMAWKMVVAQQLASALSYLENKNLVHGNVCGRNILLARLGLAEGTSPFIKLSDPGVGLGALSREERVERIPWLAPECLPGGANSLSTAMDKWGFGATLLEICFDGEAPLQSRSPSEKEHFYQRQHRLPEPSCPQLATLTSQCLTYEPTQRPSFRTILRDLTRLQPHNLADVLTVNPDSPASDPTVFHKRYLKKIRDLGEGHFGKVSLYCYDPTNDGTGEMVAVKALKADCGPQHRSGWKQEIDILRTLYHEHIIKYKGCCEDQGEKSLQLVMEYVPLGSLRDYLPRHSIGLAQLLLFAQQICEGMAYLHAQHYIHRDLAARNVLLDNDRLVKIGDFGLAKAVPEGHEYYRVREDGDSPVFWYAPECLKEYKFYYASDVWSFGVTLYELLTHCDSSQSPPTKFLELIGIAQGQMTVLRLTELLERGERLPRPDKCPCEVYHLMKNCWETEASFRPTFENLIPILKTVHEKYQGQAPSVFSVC

## CCc1cc(C2=CCN(C(=O)CC#N)CC2)ccc1N(C)c1cc2c(cn1)ncn2C [Compound 1]
[1]
  selectivity for JAK1 vs the other JAK family members (JAK2, JAK3, and TYK2): at least 9 fold
[1]; Ulight-JAK1(tyr1023) peptide, 7 μM ATP, individual determinations, read-out: IC50 against JAK1
  IC50: 1.37 nM and 1.47 nM and 1.6 nM and 3.08 nM and 1.13 nM and 1.45 nM (2×) and 1.92 nM and 2.34 nM and 2.42 nM and 1.42 nM and 4.09 nM and 4.14 nM and 3.63 nM and 3.46 nM and 2.31 nM and 0.815 nM and 6.84 nM and 6.14 nM and 0.756 nM
[2]
  Ki: 3.69 nM
[3]
  JAK1 selectivity vs JAK3: 30 fold
[3]; polyGT substrate, 1 μM ATP, individual determinations, read-out: IC50 against JAK3
  IC50: 160 nM and 65.2 nM and 142 nM and 66.9 nM and 30.9 nM and 32.8 nM and 38 nM and 66.6 nM
[4]
  Ki: 70.7 nM and 108 nM
